In patent publication US11623922B2, “Compounds” (INFLAZOME LIMITED, priority 2017, dated 2023):

Assays:
NLRP3 [1] = target: T1, NLRP3 (Homo sapiens, UniProt Q96P20); test: Human whole blood IL1β release assay; format: cell-based; set-up: Plate out 80 μl of whole blood containing 1 μg/ml of LPS in 96-well, clear bottom cell culture plate; from tissue; host or cells: human whole blood from healthy donors; details: NLRP3 inhibitory activity, 1 μg/ml LPS, nigericin 10 μM, IL-1β by AlphaLisa, read-out: HWB IC50
T1 sequence (Q96P20 whole entry): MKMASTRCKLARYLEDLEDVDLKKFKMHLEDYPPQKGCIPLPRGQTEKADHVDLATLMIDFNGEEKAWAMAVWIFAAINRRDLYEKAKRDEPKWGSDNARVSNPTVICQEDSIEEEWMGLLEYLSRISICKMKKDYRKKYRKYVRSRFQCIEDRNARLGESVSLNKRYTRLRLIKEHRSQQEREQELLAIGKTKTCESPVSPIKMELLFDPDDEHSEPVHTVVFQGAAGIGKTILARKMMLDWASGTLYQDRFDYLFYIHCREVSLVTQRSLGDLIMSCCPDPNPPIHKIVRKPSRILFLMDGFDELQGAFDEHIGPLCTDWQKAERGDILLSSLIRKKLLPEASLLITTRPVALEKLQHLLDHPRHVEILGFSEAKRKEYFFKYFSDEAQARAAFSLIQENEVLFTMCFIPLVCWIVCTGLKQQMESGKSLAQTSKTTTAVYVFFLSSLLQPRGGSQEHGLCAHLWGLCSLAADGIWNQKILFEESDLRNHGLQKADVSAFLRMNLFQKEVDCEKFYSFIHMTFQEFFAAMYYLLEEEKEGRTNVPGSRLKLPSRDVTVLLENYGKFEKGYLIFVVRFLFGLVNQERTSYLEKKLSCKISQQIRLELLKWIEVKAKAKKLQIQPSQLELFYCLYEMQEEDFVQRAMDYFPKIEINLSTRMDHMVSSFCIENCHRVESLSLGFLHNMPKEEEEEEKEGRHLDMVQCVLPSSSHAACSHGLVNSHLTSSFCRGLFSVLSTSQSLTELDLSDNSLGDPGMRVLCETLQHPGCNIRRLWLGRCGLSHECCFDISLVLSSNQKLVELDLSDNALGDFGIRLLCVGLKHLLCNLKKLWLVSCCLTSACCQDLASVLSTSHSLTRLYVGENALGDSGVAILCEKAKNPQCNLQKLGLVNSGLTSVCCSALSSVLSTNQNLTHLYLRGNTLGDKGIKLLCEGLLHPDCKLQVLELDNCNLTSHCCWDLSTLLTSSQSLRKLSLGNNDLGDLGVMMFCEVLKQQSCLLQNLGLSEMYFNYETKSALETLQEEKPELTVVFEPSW
Method: For systemic delivery, the ability to inhibit NLRP3 when the compounds are present within the bloodstream is of great importance. For this reason, the NLRP3 inhibitory activity of a number of compounds in human whole blood was investigated in accordance with the following protocol.
Human whole blood in Li-heparin tubes was obtained from healthy donors from a volunteer donor panel. • 1. […] Incubate for 3 hrs at 37° C., 5% CO2 • 4. Add 10 μl nigericin (Sigma #N7143) (10 μM FAC) to all wells • 5. Incubate for 1 hr at 37° C., 5% CO2 • 6. At the end of the incubation period, spin plates at 300×g for 5 mins to pellet cells and remove 20 μl of supernatant and add to 96-well v-bottom plates for IL-1β analysis (note: these plates containing the supernatants can be stored at −80° C. to be analysed at a later date) • 7. IL-1β was measured according to the manufacturer protocol (Perkin Elmer-AlphaLisa IL-1 Kit AL220F-5000) • 8. IC50 data is fitted to a non-linear regression equation (log inhibitor vs response-variable slope 4-parameters)

NLRP3 [2] = target: T1, NLRP3; test: THP-1 cells pyroptosis assay; format: cell-based; set-up: Seed THP-1 cells (25,000 cells/well) containing 1.0 μg/ml LPS in 40 μl of RPMI medium; host or cells: THP-1 cells; details: NLRP3 inhibitory activity, 1.0 μg/ml LPS, nigericin 5 μM, resazurin readout
Method: The cells were routinely passaged and grown to confluency (˜10^6 cells/ml). On the day of the experiment, THP-1 cells were harvested and resuspended into RPMI medium (without FBS). The cells were then counted and viability (>90%) checked by Trypan blue (Sigma #T8154). […] To this diluted cell solution was added LPS (Sigma #L4524) to give a 1 μg/ml Final Assay Concentration (FAC). 40 μl of the final preparation was aliquoted into each well of a 96-well plate. The plate thus prepared was used for compound screening.
The following method step-by-step assay was followed for compound screening. • 1. […] Incubate for 3 hrs at 37° C. in 5% CO2 • 4. Add 5 μl nigericin (Sigma #N7143) (FAC 5 μM) to all wells • 5. Incubate for 1 hr at 37° C. and 5% CO2 • 6. At the end of the incubation period, spin plates at 300×g for 3 mins and remove supernatant • 7. Then add 50 μl of resazurin (Sigma #R7017) (FAC 100 μM resazurin in RPMI medium without FBS) and incubate plates for a further 1-2 hrs at 37° C. and 5% CO2 • 8. […] IC50 data is fitted to a non-linear regression equation (log inhibitor vs response-variable slope 4-parameters)

[3] = PK protocol, intravenous administration in rats; format: in vivo; details: rat, 1 mg/kg, male Sprague Dawley rats, plasma; for Vd: read-out: Vdss
Method: Pharmacokinetic parameters were determined in male Sprague Dawley rats (Vital River Laboratory Animal Technology Co Ltd, Beijing, China, 7-9 weeks old). Animals were individually housed during the study and maintained under a 12 h light/dark cycle. Animals had free access to food and water.
For intravenous administration, compounds were formulated as a solution in DMSO:PBS [10:90] in 2 mL/kg dosing volume and administered via tail vein.
Serial blood samples (about 200 μL) were taken from each animal at each of 8 time-points post dose (0.083, 0.25, 0.5, 1, 2, 4, 8 and 24 h). Samples were held on ice for no longer than 30 minutes before centrifugation (5,696 rpm (3,000 g) for 15 minutes) for plasma generation. Plasma was frozen on dry ice prior to bioanalysis. PK parameters were generated from LC-MS/MS data using Phoenix WinNonlin 6.3 software.

Molecule	IC50 (NLRP3 [1])	IC50 (NLRP3 [2])	AUC [3]	clearance [3]	half-life [3]	Vd [3]
CC(c1cc(S(=N)(=O)NC(=O)Nc2c3c(cc4c2CCC4)CCC3)nn1C)N1CCC1 (centres unmarked) [Example 22, 5-(1-(Azetidin-1-yl)ethyl)-N-((1,2,3,5,6,7-hexahydro-s-indacen-4-yl)carbamoyl)-1-methyl-1H-pyrazole-3-sulfonimidamide]	< 500 nM	< 100 nM	–	–	–	–
COc1cc(-c2cc(F)cc(C(C)C)c2NC(=O)NS(=N)(=O)c2ccn(C(C)C)n2)ccn1 (centres unmarked) [Example 16, N-((4-Fluoro-2-isopropyl-6-(2-methoxypyridin-4-yl)phenyl)carbamoyl)-1-isopropyl-1H-pyrazole-3-sulfonimidamide]	< 1000 nM	< 100 nM	–	–	–	–
CN(C)CCn1ccc(S(=N)(=O)NC(=O)Nc2c3c(cc4c2CCC4)CCC3)n1 (centres unmarked) [Example 10, 1-(2-(Dimethylamino)ethyl)-N-((1,2,3,5,6,7-hexahydro-s-indacen-4-yl)carbamoyl)-1H-pyrazole-3-sulfonimidamide]	< 500 nM	< 500 nM	–	–	–	–
CC(C)c1cc(F)cc(-c2ccnc(C#N)c2)c1NC(=O)NS(=N)(=O)c1ccn(C(C)C)n1 (centres unmarked) [Example 15, N-((2-(2-Cyanopyridin-4-yl)-4-fluoro-6-isopropylphenyl)carbamoyl)-1-isopropyl-1H-pyrazole-3-sulfonimidamide]	< 1000 nM	< 1000 nM	–	–	–	–
CC(C)c1cc(F)cc(-c2ccnc(C#N)c2)c1NC(=O)NS(=N)(=O)c1nn(C(C)C)cc1Cl (centres unmarked) [Example 12, 4-Chloro-N-((2-(2-cyanopyridin-4-yl)-4-fluoro-6-isopropylphenyl)carbamoyl)-1-isopropyl-1H-pyrazole-3-sulfonimidamide]	< 500 nM	< 100 nM	–	–	–	–
CC(C)n1ccc(S(=N)(=O)NC(=O)Nc2c(-c3ccncc3)cc(F)c3c2CCC3)n1 (centres unmarked) [Example 24, N-((7-Fluoro-5-(pyridin-4-yl)-2,3-dihydro-1H-inden-4-yl)carbamoyl)-1-isopropyl-1H-pyrazole-3-sulfonimidamide]	< 500 nM	< 100 nM	–	–	–	–
CC(C)n1cc(Cl)c(S(=N)(=O)NC(=O)Nc2c3c(cc4c2CCC4)CCC3)n1 (centres unmarked) [Example 2, 4-Chloro-N-((1,2,3,5,6,7-hexahydro-s-indacen-4-yl)carbamoyl)-1-iso-propyl-1H-pyrazole-3-sulfonimidamide]	< 5000 nM	< 100 nM	–	–	–	–
COc1cc(-c2ccc3c(c2NC(=O)NS(=N)(=O)c2ccn(C(C)C)n2)CCC3)ccn1 (racemic) [Example 14, 1-Isopropyl-N-((5-(2-methoxypyridin-4-yl)-2,3-dihydro-1H-inden-4-yl)carbamoyl)-1H-pyrazole-3-sulfonimidamide]	< 500 nM	< 100 nM	1740 ng·h/mL	9.6 mL/min/kg	0.9 h	0.34 L/kg
5-(Azetidin-1-ylmethyl)-N-((4-fluoro-2,6-diisopropylphenyl) carbamoyl)-1-methyl-1H-pyrazole-3-sulfonimidamide [Example 23]	< 5000 nM	< 100 nM	–	–	–	–
C[C@@H](O)Cn1ccc(S(=N)(=O)NC(=O)Nc2c(-c3ccncc3)cc(F)c3c2CCC3)n1 (stereo partly drawn) [Example 25, N-((7-Fluoro-5-(pyridin-4-yl)-2,3-dihydro-1H-inden-4-yl)carbamoyl)-1-((R)-2-hydroxypropyl)-1H-pyrazole-3-sulfonimidamide]	< 500 nM	< 100 nM	–	–	–	–
COc1cc(-c2cc(F)cc(C(C)C)c2NC(=O)NS(=N)(=O)c2ccn(C[C@@H](C)O)n2)ccn1 (stereo partly drawn) [Example 19, N-((4-Fluoro-2-isopropyl-6-(2-methoxypyridin-4-yl)phenyl)carbamoyl)-1-((R)-2-hydroxypropyl)-1H-pyrazole-3-sulfonimidamide]	< 1000 nM	< 100 nM	–	–	–	–
CC(C)N1CC(S(=N)(=O)NC(=O)Nc2c3c(cc4c2CCC4)CCC3)C1 (centres unmarked) [Example 7, N-((1,2,3,5,6,7-Hexahydro-s-indacen-4-yl)carbamoyl)-1-isopropyl-azetidine-3-sulfonimidamide]	< 5000 nM	< 5000 nM	–	–	–	–
COc1cc(-c2ccc3c(c2NC(=O)N[S@](=N)(=O)c2ccn(C(C)C)n2)CCC3)ccn1 [Example 28, (S)-1-Isopropyl-N-((5-(2-methoxypyridin-4-yl)-2,3-dihydro-1H-inden-4-yl)carbamoyl)-1H-pyrazole-3-sulfonimidamide]	< 5000 nM	< 1000 nM	–	–	–	–
CCN(CC)CCCS(=N)(=O)NC(=O)Nc1c2c(cc3c1CCC3)CCC2 (centres unmarked) [Example 6, 3-(Diethylamino)-N-((1,2,3,5,6,7-hexahydro-s-indacen-4-yl)carbamoyl) propane-1-sulfonimidamide]	–	< 10000 nM	–	–	–	–
COc1cc(-c2ccc3c(c2NC(=O)NS(=N)(=O)c2ccn(C[C@@H](C)O)n2)CCC3)ccn1 (stereo partly drawn) [Example 17, 1-((R)-2-Hydroxypropyl)-N-((5-(2-methoxypyridin-4-yl)-2,3-dihydro-1H-inden-4-yl)carbamoyl)-1H-pyrazole-3-sulfonimidamide]	< 500 nM	< 100 nM	–	–	–	–
COc1cc(-c2cc(F)cc(C(C)C)c2NC(=O)NS(=N)(=O)c2nn(C(C)C)cc2Cl)ccn1 (centres unmarked) [Example 13, 4-Chloro-N-((4-fluoro-2-isopropyl-6-(2-methoxypyridin-4-yl)phenyl)carbamoyl)-1-isopropyl-1H-pyrazole-3-sulfonimidamide]	< 1000 nM	< 100 nM	–	–	–	–
CC(C)n1cc(Cl)c(S(=N)(=O)NC(=O)Nc2c(-c3ccncc3)cc(F)c3c2CCC3)n1 (centres unmarked) [Example 26, 4-Chloro-N-((7-fluoro-5-(pyridin-4-yl)-2,3-dihydro-1H-inden-4-yl)carbamoyl)-1-isopropyl-1H-pyrazole-3-sulfonimidamide]	< 500 nM	< 100 nM	–	–	–	–
C[C@@H](O)Cn1ccc(S(=N)(=O)NC(=O)Nc2c3c(cc4c2CCC4)CCC3)n1 (stereo partly drawn) [Example 3, N-((1,2,3,5,6,7-Hexahydro-s-indacen-4-yl)carbamoyl)-1-((R)-2-hydroxypropyl)-1H-pyrazole-3-sulfonimidamide]	< 500 nM	< 100 nM	2250 ng·h/mL	7.4 mL/min/kg	2.7 h	0.75 L/kg
COc1cc(-c2ccc3c(c2NC(=O)NS(=N)(=O)c2nn(C(C)C)cc2Cl)CCC3)ccn1 (centres unmarked) [Example 11, 4-Chloro-1-isopropyl-N-((5-(2-methoxypyridin-4-yl)-2,3-dihydro-1H-inden-4-yl)carbamoyl)-1H-pyrazole-3-sulfonimidamide]	< 1000 nM	< 100 nM	2720 ng·h/mL	6.1 mL/min/kg	1 h	0.45 L/kg
COc1cc(-c2ccc3c(c2NC(=O)N[S@@](=N)(=O)c2ccn(C(C)C)n2)CCC3)ccn1 [Example 27, (R)-1-Isopropyl-N-((5-(2-methoxypyridin-4-yl)-2,3-dihydro-1H-inden-4-yl)carbamoyl)-1H-pyrazole-3-sulfonimidamide]	< 500 nM	< 100 nM	–	–	–	–
N-((2-(2-Cyanopyridin-4-yl)-4-fluoro-6-isopropylphenyl)carbamoyl)-1-((R)-2-hydroxypropyl)-1H-pyrazole-3-sulfonimidamide [Example 18]	< 500 nM	< 500 nM	–	–	–	–
